Source: the NIST ThermoML archive (doi:10.1021/je5004466)
Numbers after ± are expanded uncertainties.

Details: Crystal; visual observation

C[n+]1ccn(CCOCCOCCn2cc[n+](C)c2)c1.F[P-](F)(F)(F)(F)F.F[P-](F)(F)(F)(F)F
Normal melting temperature: 91 ± 2 °C
